# Measurements as given in US20250127907A1, “PARP INHIBITORS” (Stablix, Inc., priority 2023, published 2025).
# How the values were obtained:
# Format in all cases: cell-based
# [1] = system: Poly/Mono-ADP Ribose in U2OS cells; test: PAR in cell western assay (parylation) in U2OS cells; conditions: Homo sapiens; U2OS cells, 6 hrs, 2 mM H2O2; read-out: Parylation (U2OS)
# Procedure: U2OS cells are seeded at 2667 cells per well in 24 ul medium into poly-D lysine-coated 384 well plate and incubated in the TC incubator for O/N
# The next day, test comps are diluted in a source plate and 6 μL of the diluted comp is added to the cell plate; mixed well and incubated for 6 hrs. DNA damage is induced with 2 mM H2O2 for 10 min. After discarding the medium, cells are fixed in ice cold Methanol at for 20 min at −20C. After a wash step at room temperature, cells are permeabilized with 0.05% NP-40 in PBS for 10 min, followed by wash steps. Cells are blocked with 1% BSA, at room temperature for 1 hr. Cells are stained with anti mono/polyADP ribose antibody (E6F6A, Cell signaling, 1:5000) in 1×PBS/1% BSA/0.05% Tween o/n at 4C.
# Next Day, cells are washed and incubated with anti-Rabbit 800CV (Licor antibody, 1:500) and CellTag 700 (Licor, 1:800) in 1×PBS/1% BSA/0.05% Tween for 1 h. After washing, plates are scanned using LICOR and are quantified.
# Parylation inhibition is reported as % control inhibition.
# (§1) The letter codes for the PARP1-enzyme assay include: A (<1 nM), B (>1-10 nM), C (>10-100 nM), D (>100-1000 nM), E (>1000 nM), and “-” is not tested. The letter codes for the PARP trapping assay, and parylation assay include: A (<10 nM), B (>10-100 nM), C (>100-1000 nM), […], E (>10000 nM), and “-” is not tested.
# A2780 cells = test: Cell proliferation assay (A2780); conditions: Homo sapiens, 168 h, 7 days
# Procedure: (§2) Cells are counted, diluted to desired density and 40 μL of cell suspension is added into each 384-well tissue-culture treated plates. Plates are incubated in Tissue Culture incubator at 37° C./5% C02 overnight.
# (§3) Next day, 40 nl test compounds that are prepared from source plates are transferred to the seeded cells from overnight. Plates are incubated at 37° C./5% C02 for a total of 7 days. After 7-day incubation, plates are equilibrated to room temperature and 30 ul of Cell Counting-Lite is added to each well for a 30 min incubation followed by reading on EnVision.
# (§4) The letter codes for the cell proliferation assay in A2780, HCC1806, and MDA-MB-436 cells include: A (<10 nM), B (>10-100 nM), C (>100-1000 nM), D (>1000-10000 nM), E (>10000 nM), and “-” is not tested.
# MDA-MB-436 cells = test: Cell proliferation assay (MDA-MB-436); conditions: Homo sapiens, 168 h, 7 days
# Procedure: as §2, §3, §4
# PARP1 = PARP1 (Homo sapiens, UniProt P09874); test: PARP trapping assay in U2OS cells; set-up: endogenous in cells; host or cells: U2OS; conditions: U2OS cells, MMS, 4 hrs; read-out: PARP Trapping (U2OS)
# Chain of PARP1 (P09874 whole entry): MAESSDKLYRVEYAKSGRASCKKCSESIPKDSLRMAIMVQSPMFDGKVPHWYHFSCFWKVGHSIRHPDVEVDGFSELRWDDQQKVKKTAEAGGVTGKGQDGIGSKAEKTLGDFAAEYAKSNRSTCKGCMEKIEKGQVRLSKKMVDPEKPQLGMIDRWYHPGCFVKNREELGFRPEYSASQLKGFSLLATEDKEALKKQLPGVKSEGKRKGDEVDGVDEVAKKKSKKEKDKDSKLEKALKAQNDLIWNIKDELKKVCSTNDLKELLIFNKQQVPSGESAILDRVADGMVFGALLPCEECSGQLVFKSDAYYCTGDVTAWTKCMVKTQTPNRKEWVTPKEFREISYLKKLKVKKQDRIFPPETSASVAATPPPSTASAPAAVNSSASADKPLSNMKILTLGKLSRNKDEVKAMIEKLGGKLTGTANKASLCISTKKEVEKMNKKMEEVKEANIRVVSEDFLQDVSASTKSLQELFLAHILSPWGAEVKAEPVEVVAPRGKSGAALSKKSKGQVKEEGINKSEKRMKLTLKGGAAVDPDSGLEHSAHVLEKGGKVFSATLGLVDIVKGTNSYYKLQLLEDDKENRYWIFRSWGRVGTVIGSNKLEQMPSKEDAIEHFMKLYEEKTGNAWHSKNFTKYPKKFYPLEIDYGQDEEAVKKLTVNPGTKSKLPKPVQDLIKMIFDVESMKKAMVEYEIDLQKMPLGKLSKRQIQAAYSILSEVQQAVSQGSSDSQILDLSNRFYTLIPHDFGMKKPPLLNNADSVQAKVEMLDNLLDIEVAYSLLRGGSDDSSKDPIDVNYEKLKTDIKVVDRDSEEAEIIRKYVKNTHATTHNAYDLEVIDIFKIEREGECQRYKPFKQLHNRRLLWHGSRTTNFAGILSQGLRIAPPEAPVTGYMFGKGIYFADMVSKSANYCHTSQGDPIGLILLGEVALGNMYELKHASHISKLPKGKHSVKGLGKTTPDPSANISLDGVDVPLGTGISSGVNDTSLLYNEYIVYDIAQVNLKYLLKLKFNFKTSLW
# Procedure: U2OS cells are seeded at 15,000 cells/well in 90 ul medium and incubated in the TC incubator for overnight.
# Next day, test compounds are prepared in a source plate along with addition of DNA damage reagent MMS simultaneously and 10 ul of the diluted mixture is added to the cell plate and incubated for 4 hrs under T/C conditions.
# After 4 hrs, following aspiration and washing, add 100 ul of cold cytoskeleton removal buffer (0.5% Triton X-100) and incubated for 10 min. At the end of incubation, slowly the buffer is removed, and cells are fixed with ice cold MeOH for 15 min at −20C. Followed by wash steps, cells are blocked with 1×PBS/3% BSA/0.05% Tween for 1 h at room temperature.
# Cells are stained with anti PARP1 antibody (abeam ab227244, 1:1000), in 1×PBS/1% BSA overnight at 4C.
# Wash and add DAPI, scan cells in Celigo.
# Data Analysis: DAPI staining is used to segment nuclei and AF488 fluorescence intensity per nucleus is measured.
# as §1
# HCC1806 cells = test: Cell proliferation assay (HCC1806); conditions: Homo sapiens, 168 h, 7 days
# Procedure: as §2, §3, §4
IC50 [1] [µM],IC50 (A2780 cells) [µM],IC50 (MDA-MB-436 cells) [µM],IC50 (PARP1) [µM],IC50 (HCC1806 cells) [µM],SMILES
0.1 to 1,0.01 to 0.1,0.01 to 0.1,< 0.01,–,O=C(N[C@@H](C(=O)N1CCN(CC23CCC(C(=O)N4CCN(C(=O)c5cc(Cc6n[nH]c(=O)c7ccccc67)ccc5F)CC4)(CC2)CO3)CC1)C1CCCCC1)c1cccc([C@H]2CCCN(C(=O)CNC3CC3)C2)c1 (racemic) [Compound I-381]
0.01 to 0.1,0.1 to 1,0.01 to 0.1,0.1 to 1,–,CCc1cccc(-c2cnc(C(=O)N3CCC(CN4CCN(CC(=O)N5CCN(C(=O)c6cc(Cc7n[nH]c(=O)c8ccccc78)ccc6F)CC5)CC4)CC3)c(NC(=O)CN3CCOCC3)c2)c1 [Compound I-333]
0.01 to 0.1,0.01 to 0.1,< 0.01,0.01 to 0.1,–,O=C(N[C@@H](C(=O)N1CCN(CC23CCC(C(=O)N4CCN(C(=O)c5cc(Cc6n[nH]c(=O)c7ccccc67)ccc5F)CC4)(CC2)CO3)CC1)C1CCCCC1)c1cccc(C2CCCN(C(=O)CNC3CC3)C2)c1 (some centres unmarked) [Compound I-380]
0.01 to 0.1,0.01 to 0.1,< 0.01,0.01 to 0.1,–,O=C(N[C@@H](C(=O)N1CCN(CC23CCC(C(=O)N4CCN(C(=O)c5cc(Cc6n[nH]c(=O)c7ccccc67)ccc5F)CC4)(CC2)CO3)CC1)C1CCCCC1)c1cccc([C@@H]2CCCN(C(=O)CNC3CC3)C2)c1 [Compound I-382]
0.1 to 1,0.1 to 1,< 0.01,0.1 to 1,–,CCc1cccc(-c2cc(N)c(C(=O)N3CCC(CN4CCN(CC(=O)N5CCN(C(=O)c6cc(Cc7n[nH]c(=O)c8ccccc78)ccc6F)CC5)CC4)CC3)c(F)c2)c1 [Compound I-409]
0.1 to 1,0.01 to 0.1,< 0.01,0.01 to 0.1,–,CCc1cccc(-c2cnc(C(=O)N3CCC(CC(=O)N4CCN(C(=O)c5cc(Cc6n[nH]c(=O)c7ccccc67)ccc5F)CC4)CC3)c(NC(=O)CNCc3cccc(C)c3)c2)c1 [Compound I-412]
0.01 to 0.1,0.01 to 0.1,< 0.01,0.1 to 1,–,CCc1cccc(-c2cnc(C(=O)N3CCC(CN4CCN(CC(=O)N5CCN(C(=O)c6cc(Cc7n[nH]c(=O)c8ccccc78)ccc6F)CC5)CC4)CC3)c(C#N)c2)c1 [Compound I-419]
0.01 to 0.1,0.01 to 0.1,0.1 to 1,0.1 to 1,–,O=C(N[C@@H](C(=O)N1CCN(CC(=O)N2CCN(C(=O)c3cc(Cc4n[nH]c(=O)c5ccccc45)ccc3F)CC2)CC1)C1CCCCC1)c1cccc(C2CCCN(C(=O)C3CC3)C2)c1F (some centres unmarked) [Compound I-454]
< 0.01,–,< 0.01,0.01 to 0.1,0.01 to 0.1,O=C(CN1CCC(OC2CCN(C(=O)c3c(F)cc(-c4ccccc4)cc3F)CC2)CC1)N1CCN(C(=O)c2cc(Cc3n[nH]c(=O)c4ccccc34)ccc2F)CC1 [Compound I-634]
0.1 to 1,–,< 0.01,0.01 to 0.1,0.01 to 0.1,CC1(C(=O)N2CCCC(c3cccc(C(=O)N[C@@H](C(=O)N4CCC(OC5CCN(CC(=O)N6CCN(C(=O)c7cc(Cc8n[nH]c(=O)c9ccccc89)ccc7F)CC6)CC5)CC4)C4CCCCC4)c3F)C2)CC1 (some centres unmarked) [Compound I-660]
0.01 to 0.1,–,< 0.01,0.01 to 0.1,0.01 to 0.1,O=C(N[C@@H](C(=O)N1CCC(OC2CCN(CC(=O)N3CCN(C(=O)c4cc(Cc5n[nH]c(=O)c6ccccc56)ccc4F)CC3)CC2)CC1)C1CCCCC1)c1ccc(N2CCN(C(=O)C3CC3)CC2)cc1F [Compound I-745]
0.01 to 0.1,0.01 to 0.1,< 0.01,–,0.01 to 0.1,O=C(CN1CCN(C[C@@H]2C[C@@H]3CC[C@H]2CN3C(=O)c2c(F)cc(-c3ccccc3)cc2F)CC1)N1CCN(C(=O)c2cc(Cc3n[nH]c(=O)c4ccccc34)ccc2F)CC1 [Compound I-777]
0.1 to 1,0.1 to 1,0.01 to 0.1,–,0.1 to 1,C[C@@H]1CN(CC2CCN(CC(=O)N3CCN(C(=O)c4cc(Cc5n[nH]c(=O)c6ccccc56)ccc4F)CC3)CC2)CCN1C(=O)[C@H](NC(=O)c1cccc([C@@H]2CCCN(C(=O)C(C)(C)C)C2)c1)C1CCCCC1 [Compound I-973]

# Further lines, the compound ahead of its results:
SMILES,IC50 [1] [µM],IC50 (A2780 cells) [µM],IC50 (MDA-MB-436 cells) [µM],IC50 (PARP1) [µM],IC50 (HCC1806 cells) [µM]
CCOc1cc(OC)ccc1CNCC(=O)N1CCCC(c2ccc(F)c(C(=O)N[C@@H](C(=O)N3CCN(CC4CCN(CC(=O)N5CCN(C(=O)c6cc(Cc7n[nH]c(=O)c8ccccc78)ccc6F)CC5)CC4)CC3)C3CCCCC3)c2)C1 (some centres unmarked) [Compound I-308],0.01 to 0.1,0.1 to 1,0.1 to 1,0.01 to 0.1,–
O=C(N[C@@H](C(=O)N1CCN(CC(=O)N2CCN(C(=O)c3cc(Cc4n[nH]c(=O)c5ccccc45)ccc3F)CC2)CC1)C1CCCCC1)c1cc(C2CCCN(C(=O)C3CC3)C2)ccc1F (some centres unmarked) [Compound I-453],0.1 to 1,0.01 to 0.1,0.01 to 0.1,0.1 to 1,–
O=C(N[C@@H](C(=O)N1CCC(OC2CCN(CC(=O)N3CCN(C(=O)c4cc(Cc5n[nH]c(=O)c6ccccc56)ccc4F)CC3)CC2)CC1)C1CCCCC1)c1cccc(C2CCCN(C(=O)C34CC(C3)C4)C2)c1F (some centres unmarked) [Compound I-637],0.1 to 1,–,0.1 to 1,0.01 to 0.1,0.01 to 0.1
CC(C)(C)C(=O)N1CCCC(c2cccc(C(=O)N[C@@H](C(=O)N3CCC(OC4CCN(CC(=O)N5CCN(C(=O)c6cc(Cc7n[nH]c(=O)c8ccccc78)ccc6F)CC5)CC4)CC3)C3CCCCC3)c2F)C1 (some centres unmarked) [Compound I-661],0.1 to 1,–,< 0.01,0.01 to 0.1,0.01 to 0.1
O=C(CN1CCC(OC2CCN(C(=O)c3ncc(-c4ccccc4)cc3F)CC2)CC1)N1CCN(C(=O)c2cc(Cc3n[nH]c(=O)c4ccccc34)ccc2F)CC1 [Compound I-709],< 0.01,–,< 0.01,0.01 to 0.1,0.01 to 0.1
O=C(N[C@@H](C(=O)N1CCC(CC(=O)N2CCN(C(=O)c3cc(Cc4n[nH]c(=O)c5ccccc45)ccc3F)CC2)CC1)C1CCCCC1)c1cccc(C2CCCN(C(=O)C3CC3)C2)c1F (some centres unmarked) [Compound I-715],0.01 to 0.1,–,< 0.01,0.01 to 0.1,0.01 to 0.1
O=C(CN1CCC(OC2CCN(C(=O)c3c(F)cc(-c4ccncc4)cc3F)CC2)CC1)N1CCN(C(=O)c2cc(Cc3n[nH]c(=O)c4ccccc34)ccc2F)CC1 [Compound I-727],< 0.01,–,< 0.01,< 0.01,0.01 to 0.1
CC1(C)CC(c2ccc(C(=O)N[C@@H](C(=O)N3CCC(OC4CCN(CC(=O)N5CCN(C(=O)c6cc(Cc7n[nH]c(=O)c8ccccc78)ccc6F)CC5)CC4)CC3)C3CCCCC3)c(F)c2)CCN1C(=O)C1CC1 (some centres unmarked) [Compound I-743],0.01 to 0.1,–,< 0.01,0.01 to 0.1,0.01 to 0.1
O=C(CN1CCN(C[C@@H]2C[C@H]3CC[C@@H]2CN3C(=O)c2c(F)cc(-c3ccccc3)cc2F)CC1)N1CCN(C(=O)c2cc(Cc3n[nH]c(=O)c4ccccc34)ccc2F)CC1 [Compound I-774],0.01 to 0.1,0.01 to 0.1,< 0.01,–,0.01 to 0.1
CC(C)(C)C(=O)N1CCC[C@H](c2cccc(C(=O)N[C@@H](C(=O)N3CCC(OC4CCN(CC(=O)N5CCN(C(=O)c6cc(Cc7n[nH]c(=O)c8ccccc78)ccc6F)CC5)CC4)CC3)C3CCCCC3)c2F)C1 [Compound I-910],0.1 to 1,0.01 to 0.1,< 0.01,–,0.01 to 0.1
